The values below come from patent US20170239173A1, “TRANSDERMAL ABSORPTION ENHANCER AND TRANSDERMAL ABSORPTION ENHANCEMENT AID” (ASAHI KASEI KABUSHIKI KAISHA, priority 2014, published 2017).

Data set [1] can be described thus: Franz cell test of MZR preparations, artificial skin. The note with it: equimolar salt of choline with the acidic compound b) as enhancer.
The subject of a further data set is Yucatan Micropig Skin. The conditions noted are these: Non Patent Literature 1, at maximum; cited from earlier work.
Data set [2] in a line: Solubility / state of the active ingredient in the preparation (equimolar salt or enhancer). It is filed as physicochemical. The note with it: solubility of MZR in the equimolar salt of the basic compound a) with isostearic acid or linoleic acid.
The test system of data set [3] is hairless mouse skin (Laboskin).
The conditions of data set [4]: cited from earlier work.
For data set [5] the following is noted: cited from earlier work. This is another data set of the same source.
The conditions of data set [6]: subcutaneous administration to rats; cited from earlier work.
The conditions of data set [7]: partition coefficient between water and 1-octanol; cited from earlier work.

SMILES strings stand for the structures. Like-named read-outs stand apart in the source and are kept apart here. A value given as a limit tells only on which side of the number the result lay.

On to `CC(O)C(=O)O` (racemic) [DL-lactic acid], for which the “Transdermal penetrability of MZR (artificial skin)” value in data set [1] is “Penetrated”. Regarding `Nc1nc2c(ncn2COCCO)c(=O)[nH]1` [ACV, acyclovir], in the data set on Yucatan Micropig Skin, the “transdermal penetration amount of ACV for 24 hours” value is at most 0.5 μg/cm^2. For `O=C(O)c1ccccc1` [Benzoic acid], the “Transdermal penetrability of MZR (artificial skin)” value in data set [1] was “Penetrated”.

As to `CC(O)CNCC(C)O` (centres unmarked) [DIPA], the MZR dissolution result in data set [2] is listed as “Insoluble”. Moreover, the “Transdermal penetrability of MZR” value in data set [3] is on record as “Not penetrated”. Usually pKa stands for the negative logarithm of the acid dissociation constant. With `CCCCCCCCCCCC(=O)O` [Dodecanoic acid], the “Transdermal penetrability of MZR (hairless mouse)” value in data set [3] is “Penetrated”. Besides, in data set [4], the pKa is listed as 5.30. For the same molecule, in data set [5] (20° C.), the Water solubility was 5.5 mg/100 g (20° C.). As to `O=C(O)/C=C/C(=O)O` [Fumaric acid], the Water solubility in data set [5] (25° C.) is 0.63 g/100 mL-water. Consider `O=C(O)CCCC(=O)O` [Glutaric acid], for which the pKa in data set [4] is on record as 4.34; in data set [4] (second value), 5.42. In addition, the Water solubility in data set [5] (20° C.) is 430 g/L (20° C.). Further, the “Transdermal penetrability of MZR (artificial skin)” value in data set [1] is on record as “Penetrated”. Consider `O=C(O)CO` [Glycolic acid], for which the “Transdermal penetrability of MZR (artificial skin)” value in data set [1] is given as “Penetrated”. In the case of `N=C(N)N` [Guanidine], in data set [2], the MZR dissolution entry was “Dissolved”. Also, the “Transdermal penetrability of MZR” value in data set [3] is reported as “Penetrated”. Turning to `NCCc1c[nH]cn1` [Histamine], the MZR dissolution result in data set [2] is given as “Dissolved”. Besides, in data set [3], the “Transdermal penetrability of MZR” value is “Penetrated”.

In the case of `CC(C)CCCCCCCCCCCCCCC(=O)O` [Isostearic acid], the pKa in data set [4] is reported as 4.90.

For orientation: Log P means the decadic logarithm of the partition coefficient of the neutral form, usually between octanol and water. Consider `NC(=O)c1ncn([C@@H]2O[C@H](CO)[C@@H](O)[C@H]2O)c1O` [MZR, mizoribine], for which the rate of penetration result in data set [3] (hairless, mouse) is listed as “approximately 30%”. Further, the “no-observed-adverse-effect level (NOAEL)” value in data set [6] is 5 mg/kg. Moreover, the “Log P” value in data set [7] is listed as −1.9.

On to `O=C(O)/C=C\C(=O)O` [Maleic acid], for which, in data set [5] (25° C.), the Water solubility is 78 g/100 mL (25° C.). As for `CCCCCCCCCCCCCC(=O)O` [Myristic acid], the “Transdermal penetrability of MZR (hairless mouse)” value in data set [3] is “Penetrated”. Besides, the pKa in data set [4] is given as 4.90. Also, the Water solubility in data set [5] (at 18° C.) is recorded as under 0.1 g/100 mL at.

With `CCCCCCCC/C=C\CCCCCCCC(=O)O` [Oleic acid], the “Transdermal penetrability of MZR (hairless mouse)” value in data set [3] was “Penetrated”. Also, the Water solubility entry in data set [5] (in words) is “negligible”. Consider `CCCCCCCCCCCCCCCC(=O)O` [Palmitic acid], for which, in data set [4], the pKa was 4.75.

In the case of `CCCCCCCCCCCCCCCCCC(=O)O` [Stearic acid], in data set [4], the pKa was 4.75.

Consider `COc1cc(C(O)C(=O)O)ccc1O` (centres unmarked) [Vanillylmandelic acid], for which the “Transdermal penetrability of MZR (hairless mouse)” value in data set [3] is on record as “Not penetrated”. In data set [4], the pKa is on record as 3.11. The Water solubility result in data set [5] (H2O) is “H2O: ~50 mg/mL”.

In the case of `C[N+](C)(C)CCOP(=O)([O-])OC[C@H](O)CO` [αGPC], the MZR dissolution entry in data set [2] is reported as “Insoluble”. Besides, the “Transdermal penetrability of MZR” value in data set [3] is listed as “Not penetrated”.
